From PubChem BioAssay AID248 (DTP/NCI, 2004) come the findings set out here.

The assay has as its system L1210 leukemia ip in BDF1 mice, survival T/C. Briefly: NCI In Vivo Anticancer Drug Screen. Data for tumor model L1210 Leukemia (intraperitoneal) in B6D2F1 (BDF1) mice. Particulars: endpoint: mean survival time, higher = longer survival. In short, it runs like this:
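Tumor cells were implanted, animals were treated, and survival was followed. The result divides the treated measurement by the vehicle-control measurement.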

The mark [1] stands for this setting: dose: 100.0 mg/kg/injection, schedule: Q01DX001 (ip), vehicle: other.
Setting [2] is: dose: 200.0 mg/kg/injection, schedule: Q01DX001 (ip), vehicle: carboxymethylcellulose (CMC).
[3] abbreviates: dose: 100.0 mg/kg/injection, schedule: Q01DX009 (ip), vehicle: saline with Tween-80.
Setting [4] is: dose: 200.0 mg/kg/injection, schedule: Q01DX009 (ip), vehicle: saline with Tween-80.
The mark [5] stands for this setting: dose: 400.0 mg/kg/injection, schedule: Q01DX009 (ip), vehicle: saline with Tween-80.
[6] abbreviates: dose: 100.0 mg/kg/injection, schedule: Q01DX009 (ip), vehicle: Klucel (hydroxypropylcellulose) (HPC).
[7] abbreviates: dose: 200.0 mg/kg/injection, schedule: Q01DX009 (ip), vehicle: Klucel (hydroxypropylcellulose) (HPC).
The mark [8] stands for this setting: dose: 100.0 mg/kg/injection, schedule: Q04DX003 (ip), vehicle: saline with Tween-80.
Where [9] appears, read: dose: 200.0 mg/kg/injection, schedule: Q04DX003 (ip), vehicle: saline with Tween-80.

Where “and” joins values, the source holds several entries; their conditions need not be identical. Equal entries are not always repeated. Toxic doses and inconclusive results are not listed.

With `CSC1c2ccccc2-c2ccccc21`, the T/C by setting is: (dose: 44.0 mg/kg/injection, schedule: Q01DX001 (ip), vehicle: carboxymethylcellulose (CMC)) 100 % of control; (dose: 44.0 mg/kg/injection, schedule: Q01DX001 (ip), vehicle: other) 105 % of control; (dose: 66.0 mg/kg/injection, schedule: Q01DX001 (ip), vehicle: carboxymethylcellulose (CMC)) 94 % of control and 105 % of control; (dose: 66.0 mg/kg/injection, schedule: Q01DX001 (ip), vehicle: other) 97 % of control; (dose: 100.0 mg/kg/injection, schedule: Q01DX001 (ip), vehicle: carboxymethylcellulose (CMC)) 106 % of control and 111 % of control; under setting [1], 100 % of control. Also, the T/C was 95 % of control and 100 % of control (dose: 150.0 mg/kg/injection, schedule: Q01DX001 (ip), vehicle: carboxymethylcellulose (CMC)); 97 % of control (dose: 150.0 mg/kg/injection, schedule: Q01DX001 (ip), vehicle: other); 104 % of control under setting [2]; 107 % of control (dose: 400.0 mg/kg/injection, schedule: Q01DX001 (ip), vehicle: carboxymethylcellulose (CMC)).
As to `COc1ccccc1OCC(C)=O`, the T/C under setting [3] was 95 % of control, the T/C under setting [4] was 105 % of control and the T/C under setting [5] was 105 % of control.
As for `Nc1nnnc2nc[nH]c12`, the T/C is, setting by setting: (dose: 12.5 mg/kg/injection, schedule: Q01DX Z (ip), vehicle: carboxymethylcellulose (CMC)) 100 % of control; (dose: 25.0 mg/kg/injection, schedule: Q01DX Z (ip), vehicle: carboxymethylcellulose (CMC)) 93 % of control.
For the compound `CSc1ccc(C(=NO)c2ccc(SC)cc2)cc1`, the T/C by setting is: under setting [6], 95 % of control; (dose: 100.0 mg/kg/injection, schedule: Q04DX003 (ip), vehicle: Klucel (hydroxypropylcellulose) (HPC)) 101 % of control; under setting [7], 103 % of control; (dose: 200.0 mg/kg/injection, schedule: Q04DX003 (ip), vehicle: Klucel (hydroxypropylcellulose) (HPC)) 94 % of control; (dose: 400.0 mg/kg/injection, schedule: Q01DX009 (ip), vehicle: Klucel (hydroxypropylcellulose) (HPC)) 95 % of control; (dose: 400.0 mg/kg/injection, schedule: Q04DX003 (ip), vehicle: Klucel (hydroxypropylcellulose) (HPC)) 103 % of control.
Turning to `O=C1C(Cl)=C(c2ccccc2)C(=O)C(Cl)=C1c1ccccc1`, the T/C reads like this: under setting [1], 93 % of control; (dose: 200.0 mg/kg/injection, schedule: Q01DX001 (ip), vehicle: other) 88 % of control.
With `COc1ccccc1C(C(C)C)C(C)C`, the T/C reads like this: under setting [8], 105 % of control; under setting [9], 101 % of control.
Consider `Cc1cc2cc3n(c2nn1)N=C(Cl)CC3`, for which the T/C by setting is: (dose: 80.0 mg/kg/injection, schedule: Q04DX002 (ip), vehicle: Klucel (hydroxypropylcellulose) (HPC)) 106 % of control; (dose: 160.0 mg/kg/injection, schedule: Q04DX002 (ip), vehicle: Klucel (hydroxypropylcellulose) (HPC)) 118 % of control; (dose: 320.0 mg/kg/injection, schedule: Q04DX002 (ip), vehicle: Klucel (hydroxypropylcellulose) (HPC)) 168 % of control.
For the compound `CC(=O)c1sc2sc(C(C)=O)c(NC(=S)Nc3cccc(C(F)(F)F)c3)c2c1NC(=S)Nc1cccc(C(F)(F)F)c1`, the T/C was 98 % of control and 99 % of control (dose: 50.0 mg/kg/injection, schedule: Q04DX002 (ip), vehicle: saline with Tween-80); 96 % of control (dose: 100.0 mg/kg/injection, schedule: Q01DX001 (ip), vehicle: saline with Tween-80); 96 % of control and 89 % of control under setting [3]; 93 % of control under setting [8]; 92 % of control (dose: 200.0 mg/kg/injection, schedule: Q01DX001 (ip), vehicle: saline with Tween-80); 101 % of control and 86 % of control under setting [4]. Moreover, the T/C by setting is: under setting [9], 90 % of control; (dose: 400.0 mg/kg/injection, schedule: Q01DX001 (ip), vehicle: saline with Tween-80) 100 % of control; under setting [5], 96 % of control and 91 % of control.
With `CCCCCS(=O)(=O)N1CCCCCC1`, the T/C is, setting by setting: (dose: 100.0 mg/kg/injection, schedule: Q04DX002 (ip), vehicle: other) 112 % of control; (dose: 200.0 mg/kg/injection, schedule: Q04DX002 (ip), vehicle: other) 87 % of control; (dose: 400.0 mg/kg/injection, schedule: Q04DX002 (ip), vehicle: other) 87 % of control.
Take `O=C(O)c1cc(Cl)nc(Cl)c1`: the T/C is 97 % of control under setting [6] and 88 % of control under setting [7].
As to `CCOC(=O)Nc1cc(N(C)CC(O)CN(C)c2ccccc2)c(N)c(N)n1` (configuration not stated), the T/C was 106 % of control (dose: 100.0 mg/kg/injection, schedule: Q01DX001 (ip), vehicle: Klucel (hydroxypropylcellulose) (HPC)); 107 % of control (dose: 200.0 mg/kg/injection, schedule: Q01DX001 (ip), vehicle: Klucel (hydroxypropylcellulose) (HPC)); 105 % of control (dose: 400.0 mg/kg/injection, schedule: Q01DX001 (ip), vehicle: Klucel (hydroxypropylcellulose) (HPC)).
For `CS(=O)(=O)OCCF`, the T/C is 101 % of control (dose: 0.25 mg/kg/injection, schedule: Q01DX009 (ip), vehicle: saline); 103 % of control (dose: 0.5 mg/kg/injection, schedule: Q01DX009 (ip), vehicle: saline); 103 % of control (dose: 1.0 mg/kg/injection, schedule: Q01DX009 (ip), vehicle: saline); 103 % of control (dose: 2.5 mg/kg/injection, schedule: Q01DX009 (ip), vehicle: carboxymethylcellulose (CMC)); 103 % of control (dose: 2.5 mg/kg/injection, schedule: Q01DX009 (ip), vehicle: saline); 108 % of control (dose: 5.0 mg/kg/injection, schedule: Q01DX009 (ip), vehicle: carboxymethylcellulose (CMC)). Also, the T/C runs as follows: (dose: 6.25 mg/kg/injection, schedule: Q04DX003 (ip), vehicle: saline with Tween-80) 114 % of control; (dose: 9.0 mg/kg/injection, schedule: Q01DX009 (ip), vehicle: saline) 92 % of control; (dose: 10.5 mg/kg/injection, schedule: Q01DX015 (ip), vehicle: saline) 97 % of control; (dose: 10.8 mg/kg/injection, schedule: Q01DX015 (ip), vehicle: saline) 100 % of control; (dose: 12.5 mg/kg/injection, schedule: Q01DX001 (ip), vehicle: acetone) 103 % of control; (dose: 12.5 mg/kg/injection, schedule: Q01DX009 (ip), vehicle: acetone) 106 % of control. Also, the T/C is, setting by setting: (dose: 18.0 mg/kg/injection, schedule: Q01DX015 (ip), vehicle: saline) 114 % of control; (dose: 20.0 mg/kg/injection, schedule: Q01DX009 (ip), vehicle: carboxymethylcellulose (CMC)) 87 % of control; (dose: 25.0 mg/kg/injection, schedule: Q01DX001 (ip), vehicle: acetone) 116 % of control; (dose: 25.0 mg/kg/injection, schedule: Q01DX001 (ip), vehicle: saline) 94 % of control; (dose: 30.0 mg/kg/injection, schedule: Q01DX001 (ip), vehicle: saline) 98 % of control; (dose: 30.0 mg/kg/injection, schedule: Q01DX015 (ip), vehicle: saline) 113 % of control and 91 % of control. Moreover, the T/C is, setting by setting: (dose: 44.0 mg/kg/injection, schedule: Q01DX001 (ip), vehicle: saline) 106 % of control and 122 % of control; (dose: 50.0 mg/kg/injection, schedule: Q01DX001 (ip), vehicle: acetone) 103 % of control; (dose: 50.0 mg/kg/injection, schedule: Q01DX001 (ip), vehicle: carboxymethylcellulose (CMC)) 117 % of control; (dose: 50.0 mg/kg/injection, schedule: Q01DX001 (ip), vehicle: saline) 102 % of control and 109 % of control; under setting [2], 97 % of control; (dose: 400.0 mg/kg/injection, schedule: Q01DX001 (ip), vehicle: saline) 87 % of control.
For the compound `c1ccc2c(c1)cc1ncc3cccc4ccc2c1c43`, the T/C under setting [8] is 88 % of control; the T/C under setting [9] is 102 % of control; the T/C (dose: 400.0 mg/kg/injection, schedule: Q04DX003 (ip), vehicle: saline with Tween-80) is 88 % of control.
